Several values for one entry are separate records, joined by “and”; a condition that tells them apart may be missing. Equal values may be shown once. Read-outs that look alike come from different tables or passages of the source.
Experiments:
Nematospiroides dubius = test: Anthelmintic efficacy against N. dubius in mice, single oral dose; format: in vivo, Nematospiroides dubius (in albino female mice); settings: for ED50 / inhibition in vivo at 1.25 mg/kg / inhibition in vivo at 2 mg/kg / inhibition in vivo at 4 mg/kg / inhibition in vivo at 5 mg/kg / inhibition in vivo at 10 mg/kg: Heligmosomoides polygyrus; for inhibition in vivo at 1.25 mg/kg: single oral dose 1.25 mg./Kg.; for inhibition in vivo at 1.25 mg/kg / inhibition in vivo at 2 mg/kg / inhibition in vivo at 4 mg/kg / inhibition in vivo at 5 mg/kg / inhibition in vivo at 10 mg/kg: molar-adjusted, read-out: Percent Nematospiroides Activity; for inhibition in vivo at 2 mg/kg: single oral dose 2.0 mg./Kg.; for inhibition in vivo at 4 mg/kg: single oral dose 4.0 mg./Kg.; for inhibition in vivo at 5 mg/kg: single oral dose 5.0 mg./Kg.; for inhibition in vivo at 10 mg/kg: single oral dose 10 mg./Kg.
Protocol: Albino female mice are each inoculated with about 20 infectious larvae of Nematospiroides dubius. This nematode is a representative of the economical important trichostrongylis worms of ruminants and other hosts, and of nematodes in general. Twenty-two days after inoculation, groups of four randomly selected mice containing adult N. dubius are given single oral doses of test compounds dissolved or suspended in 0.4 ml. of water per 20 gram mouse. At 26 or 27 days after inoculation, treated mice and in each test four randomly selected groups of untreated mice are necropsied. The number of worms in the small intestine of each mouse are determined by microscopic examination. Average worm numbers for each treated group and for the untreated controls are computed and the percent efficacy determined by the customary formula:
(Average Worms in Control - Average Worms in Treated)/(Average Worms in Control) X 100.

in vivo [1] = settings: for Approx. LD50 /ED50: chemotherapeutic index, mouse oral, N. dubius; for LD50: mouse, in vivo, po; for Dead/Total: mice
Source text: Data on the acute oral toxicity to mice of various single oral doses of the above compounds and several analogs were obtained by conventional procedures, (Table IX hereinafter).

Trichuris vulpis = test: Oral or subcutaneous activity vs. mature Trichuris vulpis in dogs (critical test); format: in vivo
Protocol: (§1) Dogs infected with mature adult whipworms Trichuris vulpis were treated with various single or double doses of unsubstituted or substituted tetramisole analogs by the oral or subcutaneous route (Table XI hereinafter). Whipworms passed in the feces were collected for several days, and the whipworms still present determined at necropsy. Percent efficacy was determined in these "critical" tests. […] Trichuris is a type of nematode refactory to treatment with most prior anthelmintics at well tolerated doses. Taxonomically allied nematodes, e.g., Trichinella and Capillaria are also refractory to most anthelmintics.

in vivo [2] = settings: dog
Protocol: as §1

helminths = settings: prior art compounds; cited from earlier work
whipworms = settings: prior art compounds, especially in dogs; cited from earlier work
[3] = po, as Base, single oral dose, mice, > indicates inactive at dose shown, read-out: Approx. ED50
[4] = po, mouse oral, Table IX, read-out: Approx. ED50 vs. N. dubius
[5] = single oral dose 10 mg./kg., N. dubius, mice
[6] = Approx. LD50, mouse oral, Table IX
[7] = LD50, mice, adjusted to molar equivalents of tetramisole free base
[8] = oral 5 Mg./Kg., based on total worms in all dogs

| Compound | ED50 (Nematospiroides dubius; [3]) [mg/kg] | ED50 (Nematospiroides dubius; [4]) [mg/kg] | inhibition in vivo at 1.25 mg/kg (Nematospiroides dubius; po) [%] | inhibition in vivo at 2 mg/kg (Nematospiroides dubius; po) [%] | inhibition in vivo at 4 mg/kg (Nematospiroides dubius; po) [%] | inhibition in vivo at 5 mg/kg (Nematospiroides dubius; po) [%] | inhibition in vivo at 10 mg/kg (Nematospiroides dubius; po) [%] | Average % Efficacy (Nematospiroides dubius; [5]) [%] | Approx. LD50 /ED50 (in vivo [1]; Table IX) | LD50 (in vivo [1]; [6]) [mg/kg] | LD50 (in vivo [1]; [7]) [mg/kg] | Dead/Total (in vivo [1]; single oral dose 4-5 Mg./Kg.) | Dead/Total (in vivo [1]; single oral dose 10 Mg./Kg.) | Dead/Total (in vivo [1]; single oral dose 20 Mg./Kg.) | Dead/Total (in vivo [1]; single oral dose 40 Mg./Kg.) | % Efficacy Orally (Trichuris vulpis; oral 2.5 Mg./Kg.) [%] | % Efficacy Orally (Trichuris vulpis; [8]) [%] | MTD (in vivo [2]; po) [mg/kg] | MTD (in vivo [2]; sc) [mg/kg] | % Efficacy Orally (Trichuris vulpis; oral 1.25 Mg./Kg.) [%] | further results |
| --- | --- | --- | --- | --- | --- | --- | --- | --- | --- | --- | --- | --- | --- | --- | --- | --- | --- | --- | --- | --- | --- |
| Cl.Cl.Nc1cccc(C2CN3CCSC3=N2)c1 (racemic) [dl-m-aminotetramisole, 6-(m-Aminophenyl)-2,3,5,6-tetrahydroimidazo[2,1-b]thiazole Dihydrochloride] | 1 | 1 | 57 | 92 | 100 | 100 | 100 | 100 | 15 | 15 | ~20 | 0/8 | 2/29 | 10/12 | 4/4 | 99 | 98 | 7.5 | 5 | – | ED50 (Nematospiroides dubius; po, read-out: ED50 (approximate dose which removes 50% of the worms), N. dubius in mice, single oral dose): ~1 mg/kg; superiority over tetramisole at dose required to attain 85 - 88% efficacy (Nematospiroides dubius; N. dubius in mice): approximately eightfold superiority; activity in words (Nematospiroides dubius; N. dubius in mice, oral): unusually high activity; activity relative to tetramisole (Nematospiroides dubius; from ED50s against N. dubius in mice): approximately nine times as active as tetramisole; activity in words (Nematospiroides dubius; single dose oral ED50 against N. dubius in mice): unexpected high activity; Average % Efficacy (Nematospiroides dubius; single oral dose 0.5 mg./kg.): 5%; % Efficacy per Group (Nematospiroides dubius; single oral dose 0.5 mg./kg., Dihydrochloride): 2% and 6% and 8%; Average % Efficacy (Nematospiroides dubius; single oral dose 1.00 mg./kg.): 50%; Average % Efficacy (Nematospiroides dubius; single oral dose 1.25 mg./kg.): 81%; % Efficacy per Group (Nematospiroides dubius; single oral dose 1.25 mg./kg., Dihydrochloride): 80% and 82%; Average % Efficacy (Nematospiroides dubius; single oral dose 2.0 mg./kg.): 85%; % Efficacy per Group (Nematospiroides dubius; single oral dose 2.0 mg./kg., Dihydrochloride): 77% and 78% and 82% and 83% and 88% and 92% and 98%; % Efficacy per Group (Nematospiroides dubius; single oral dose 4 mg./kg.): 100%; Average % Efficacy (Nematospiroides dubius; single oral dose 4 mg./kg.): 100%; % Efficacy per Group (Nematospiroides dubius; single oral dose 5 mg./kg.): 100%; Average % Efficacy (Nematospiroides dubius; single oral dose 5 mg./kg.): 100%; % Efficacy per Group (Nematospiroides dubius; [5]): 100%; Dead/Total (in vivo [1]; single oral dose 15 Mg./Kg.): 7/14; % Efficacy SC (Trichuris vulpis; SC 2.5 Mg./Kg.): 92%; % Efficacy SC (Trichuris vulpis; SC 5 Mg./Kg.): 100% |
| c1ccc(C2CN3CCSC3=N2)cc1 (racemic) [dl-tetramisole, dl-6-phenyl-2,3,5,6-tetrahydroimidazo[2,1-b]thiazole, reference compound] | – | – | – | – | – | – | – | 70 | – | – | – | – | – | – | – | – | – | – | – | – | ED50 (Nematospiroides dubius; read-out: ED50 (approximate dose which removes 50% of the worms), N. dubius in mice, single oral dose): ~9 mg/kg; ED50 (Nematospiroides dubius; as Base, single oral dose, mice, > indicates inactive at dose shown, read-out: Approx. ED50): 9 mg/kg; ED50 (Nematospiroides dubius; mouse oral, Table IX, read-out: Approx. ED50 vs. N. dubius): 9 mg/kg; Average % Efficacy (Nematospiroides dubius; single oral dose 6 mg./kg.): 7%; % Efficacy per Group (Nematospiroides dubius; single oral dose 8 mg./kg.): 28% and 33% and 39%; Average % Efficacy (Nematospiroides dubius; single oral dose 8 mg./kg.): 33%; % Efficacy per Group (Nematospiroides dubius; single oral dose 12 mg./kg.): 60% and 62% and 68% and 73%; Average % Efficacy (Nematospiroides dubius; single oral dose 12 mg./kg.): 66%; % Efficacy per Group (Nematospiroides dubius; single oral dose 16 mg./kg.): 74% and 91% and 92% and 94%; Average % Efficacy (Nematospiroides dubius; single oral dose 16 mg./kg.): 88%; % Efficacy per Group (Nematospiroides dubius; single oral dose 20 mg./kg.): 96% and 98% and 99% and 100%; Average % Efficacy (Nematospiroides dubius; single oral dose 20 mg./kg.): 98%; oral dose at which inactive (% Efficacy Orally column) (Trichuris vulpis; > means inactive at dose shown, oral): > 10 mg/kg; % Efficacy SC (Trichuris vulpis; SC 10 Mg./Kg., listed as dl H): 2%; activity against helminths in words (helminths): highly effective against most helminths; activity against whipworms in words (whipworms): not sufficiently active against whipworms, especially in dogs |
| O=CNc1cccc(C2CN3CCSC3=N2)c1 (racemic) [m-NH--HCO dl, 3'-(2,3,5,6-Tetrahydroimidazo[2,1-b-]thiazol-6-yl)-formanilide] | 3 | 3 | – | – | 79 | – | 97 | – | 10 | 30 | ~30 | 0/8 | 0/4 | 1/10 | 12/13 | 83 | 100 | 7.5 | > 5 | 21 | – |
| O=CNc1cccc(C2CN3CCSC3=N2)c1 (stereo not drawn) [HNCHO l-] | – | – | 61 | 72 | – | 95 | 100 | – | – | – | ~30 | – | – | – | – | 100 | – | 2.5 | – | 46 | – |

— patent publication US3989835A, “Method of using 6-substituted amino phenyl-2,3,5,6-tetra-hydro[2,1-b]thiazoles for controlling gastrointestinal nematodes” (American Cyanamid Company, priority 1974, dated 1976)
